ChEMBL document CHEMBL2029323, “The discovery and development of selective 3-fluoro-4-aryloxyallylamine inhibitors of the amine oxidase activity of semicarbazide-sensitive amine oxidase/vascular adhesion protein-1 (SSAO/VAP-1)” (Bioorg Med Chem Lett, 2012)

Columns and labels:
[1] = target: T1, Amine oxidase [copper-containing] 3 (Homo sapiens, UniProt Q16853); assay: Inhibition of human recombinant SSAO/VAP1 assessed as H2O2 production by Resorufin/Amplex Red assay
T1 sequence (Q16853 whole entry): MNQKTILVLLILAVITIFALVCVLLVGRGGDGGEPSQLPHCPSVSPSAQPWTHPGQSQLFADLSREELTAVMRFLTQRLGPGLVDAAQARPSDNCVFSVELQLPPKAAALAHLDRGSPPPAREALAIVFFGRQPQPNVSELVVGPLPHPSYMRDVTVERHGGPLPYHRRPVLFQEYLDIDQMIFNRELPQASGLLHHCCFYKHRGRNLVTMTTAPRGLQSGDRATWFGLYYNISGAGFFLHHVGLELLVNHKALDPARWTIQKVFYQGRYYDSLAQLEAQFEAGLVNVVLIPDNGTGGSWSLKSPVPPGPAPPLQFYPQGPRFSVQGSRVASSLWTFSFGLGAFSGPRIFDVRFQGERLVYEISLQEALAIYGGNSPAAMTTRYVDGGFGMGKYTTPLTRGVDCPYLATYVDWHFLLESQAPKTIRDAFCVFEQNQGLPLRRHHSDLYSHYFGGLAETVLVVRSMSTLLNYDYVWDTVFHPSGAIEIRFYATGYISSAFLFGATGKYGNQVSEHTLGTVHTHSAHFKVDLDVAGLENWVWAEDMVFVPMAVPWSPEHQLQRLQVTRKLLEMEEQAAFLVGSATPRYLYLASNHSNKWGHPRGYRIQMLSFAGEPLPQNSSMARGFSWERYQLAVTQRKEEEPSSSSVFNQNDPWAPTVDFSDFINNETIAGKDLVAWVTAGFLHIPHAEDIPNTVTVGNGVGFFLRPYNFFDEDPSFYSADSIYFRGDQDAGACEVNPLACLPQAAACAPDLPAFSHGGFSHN

[2] = target: T2, Amine oxidase [flavin-containing] B (Homo sapiens, UniProt P27338); assay: Inhibition of human recombinant MAO-B assessed as H2O2 production by Resorufin/Amplex Red assay
T2 sequence (P27338 whole entry): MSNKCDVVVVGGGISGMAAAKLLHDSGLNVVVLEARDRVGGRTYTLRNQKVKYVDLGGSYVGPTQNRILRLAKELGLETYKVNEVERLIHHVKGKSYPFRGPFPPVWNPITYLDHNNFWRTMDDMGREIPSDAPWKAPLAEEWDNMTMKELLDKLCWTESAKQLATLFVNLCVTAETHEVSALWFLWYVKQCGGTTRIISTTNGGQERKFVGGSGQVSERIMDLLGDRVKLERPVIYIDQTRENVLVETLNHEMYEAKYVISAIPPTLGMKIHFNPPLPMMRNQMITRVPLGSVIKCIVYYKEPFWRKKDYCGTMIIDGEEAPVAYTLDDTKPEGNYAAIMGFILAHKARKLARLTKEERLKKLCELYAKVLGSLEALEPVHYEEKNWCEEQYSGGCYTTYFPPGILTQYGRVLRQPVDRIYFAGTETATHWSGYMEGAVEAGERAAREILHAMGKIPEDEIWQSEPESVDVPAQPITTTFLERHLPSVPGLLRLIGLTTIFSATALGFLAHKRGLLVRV

[3] = target: T3, Amine oxidase [flavin-containing] A (Homo sapiens, UniProt P21397); assay: Inhibition of human recombinant MAO-A assessed as H2O2 production by Resorufin/Amplex Red assay
T3 sequence (P21397 whole entry): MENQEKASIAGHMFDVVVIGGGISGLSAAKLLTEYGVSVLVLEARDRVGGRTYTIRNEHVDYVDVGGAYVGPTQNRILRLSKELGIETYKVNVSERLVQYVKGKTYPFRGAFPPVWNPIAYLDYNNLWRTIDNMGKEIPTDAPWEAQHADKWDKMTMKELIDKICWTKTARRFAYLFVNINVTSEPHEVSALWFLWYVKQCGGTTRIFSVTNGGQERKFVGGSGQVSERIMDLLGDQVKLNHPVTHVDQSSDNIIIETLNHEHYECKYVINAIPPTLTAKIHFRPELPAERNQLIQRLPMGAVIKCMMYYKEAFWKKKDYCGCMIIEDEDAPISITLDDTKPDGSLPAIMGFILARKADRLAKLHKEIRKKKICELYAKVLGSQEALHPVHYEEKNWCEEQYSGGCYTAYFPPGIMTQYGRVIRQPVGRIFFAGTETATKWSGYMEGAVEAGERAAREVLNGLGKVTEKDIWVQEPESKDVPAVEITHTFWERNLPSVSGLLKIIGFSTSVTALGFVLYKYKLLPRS

[4] = target: T4, Amine oxidase [copper-containing] 3 (Mus musculus, UniProt O70423); assay: Inhibition of SSAO/VAP1 in mouse adipocytes measuring H2O2 production by Resorufin/Amplex Red assay; format: cell-based
T4 sequence (O70423 whole entry): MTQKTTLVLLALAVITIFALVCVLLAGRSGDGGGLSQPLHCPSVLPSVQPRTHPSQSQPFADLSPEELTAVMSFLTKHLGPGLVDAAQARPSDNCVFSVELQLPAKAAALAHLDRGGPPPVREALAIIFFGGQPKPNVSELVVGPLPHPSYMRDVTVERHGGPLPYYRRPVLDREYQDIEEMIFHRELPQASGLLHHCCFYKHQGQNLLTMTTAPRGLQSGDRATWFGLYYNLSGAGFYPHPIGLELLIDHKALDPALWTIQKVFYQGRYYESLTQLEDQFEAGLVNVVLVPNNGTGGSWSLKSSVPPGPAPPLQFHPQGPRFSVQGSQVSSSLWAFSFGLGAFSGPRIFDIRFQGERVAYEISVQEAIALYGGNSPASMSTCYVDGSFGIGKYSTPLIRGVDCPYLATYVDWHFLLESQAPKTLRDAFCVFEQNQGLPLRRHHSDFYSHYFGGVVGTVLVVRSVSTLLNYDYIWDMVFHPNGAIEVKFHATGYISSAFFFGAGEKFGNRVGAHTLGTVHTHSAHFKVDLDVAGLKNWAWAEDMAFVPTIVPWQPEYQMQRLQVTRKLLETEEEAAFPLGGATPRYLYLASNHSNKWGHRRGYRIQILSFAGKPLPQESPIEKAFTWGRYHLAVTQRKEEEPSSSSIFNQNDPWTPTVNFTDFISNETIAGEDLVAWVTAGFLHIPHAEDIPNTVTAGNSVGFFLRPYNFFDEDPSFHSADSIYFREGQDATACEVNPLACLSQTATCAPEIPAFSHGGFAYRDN

[5] = target: recombinant human DAO (diamine oxidase) (Homo sapiens, UniProt P19801); assay: Inhibition of human DAO measuring H2O2 production by Resorufin/Amplex Red assay
[6] = Half life in po dosed rat; format: ADME, organism-based; conditions: in vivo
Rattus norvegicus = assay: Inhibition of SSAO/VAP1 in po dosed rat gonadal adipose tissue after 6 hrs; format: functional, organism-based
Mus musculus = assay: Inhibition of SSAO/VAP1 in po dosed mouse gonadal adipose tissue after 6 hrs; format: functional, organism-based
[7] = Inhibition of CYP450; format: ADME
[8] = target: T1, Amine oxidase [copper-containing] 3; assay: Inhibition of human SSAO/VAP1 measuring H2O2 production by Kitz and Wilson plot analysis
Salmonella typhimurium = assay: Mutagenic activity in Salmonella typhimurium by Ames test; format: toxicity, organism-based; conditions: salmonella enterica subsp. enterica serovar typhimurium
[9] = Oral bioavailability in rat; format: ADME, organism-based; conditions: in vivo
[10] = target: T5, Amine oxidase [copper-containing] 2 (Homo sapiens, UniProt O75106); assay: Inhibition of human AOC2
T5 sequence (O75106 whole entry): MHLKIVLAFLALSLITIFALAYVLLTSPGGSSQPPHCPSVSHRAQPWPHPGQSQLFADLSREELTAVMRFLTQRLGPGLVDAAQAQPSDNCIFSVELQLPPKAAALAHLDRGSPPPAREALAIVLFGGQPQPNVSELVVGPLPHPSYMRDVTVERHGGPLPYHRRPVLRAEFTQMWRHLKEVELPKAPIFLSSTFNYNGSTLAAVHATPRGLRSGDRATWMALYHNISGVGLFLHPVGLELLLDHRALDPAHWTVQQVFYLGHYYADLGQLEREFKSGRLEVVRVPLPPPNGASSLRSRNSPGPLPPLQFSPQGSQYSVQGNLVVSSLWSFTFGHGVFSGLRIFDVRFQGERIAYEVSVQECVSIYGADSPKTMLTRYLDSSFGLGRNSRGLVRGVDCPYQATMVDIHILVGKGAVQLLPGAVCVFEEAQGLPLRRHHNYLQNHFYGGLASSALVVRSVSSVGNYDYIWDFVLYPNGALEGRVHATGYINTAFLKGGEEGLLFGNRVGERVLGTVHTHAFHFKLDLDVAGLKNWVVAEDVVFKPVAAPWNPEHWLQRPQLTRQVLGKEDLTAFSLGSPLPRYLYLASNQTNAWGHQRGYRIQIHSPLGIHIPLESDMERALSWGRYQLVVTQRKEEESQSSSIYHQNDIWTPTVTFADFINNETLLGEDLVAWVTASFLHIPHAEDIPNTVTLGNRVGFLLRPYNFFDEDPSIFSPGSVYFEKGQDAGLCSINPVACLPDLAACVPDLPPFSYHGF

Row | Compound | IC50 [1] [nM] | IC50 [2] [nM] | IC50 [3] [nM] | also measured
1 | NC/C=C(/F)COc1ccccc1 | 290 | 180 | > 30000 | –
2 | NC/C=C(\F)COc1ccccc1 | 20000 | – | – | –
3 | NCC=CCOc1ccccc1 [listing 1 of 2 here] | > 100000 | – | – | –
4 | NCC=CCOc1ccccc1 [listing 2 of 2 here] | 82000 | – | – | –
5 | COc1ccc(OC/C(F)=C\CN)cc1 | 160 | 310 | – | –
6 | NC/C=C(/F)COc1ccc(Oc2ccccc2)cc1 | 240 | 450 | – | –
7 | NC/C=C(/F)COc1cccc(Cl)c1 | 250 | 30 | – | –
8 | CSc1ccc(OC/C(F)=C\CN)cc1 | 20 | 160 | – | –
9 | CC(C)(C)c1ccc(OC/C(F)=C\CN)cc1 | 210 | 6400 | > 30000 | –
10 | NC/C=C(/F)COc1ccc(OC(F)(F)F)cc1 | 180 | 70 | – | –
11 | NC/C=C(/F)COc1ccc([N+](=O)[O-])cc1 | 70 | 10 | – | –
12 | NC/C=C(/F)COc1ccc(F)c(F)c1 | 190 | 90 | – | –
13 | NC/C=C(/F)COc1ccc(C(F)(F)F)cc1 | 40 | 130 | – | –
14 | NC/C=C(/F)COc1cccc(C(F)(F)F)c1 | 150 | 30 | > 10000 | –
15 | NC/C=C(/F)COc1ccc(C(N)=O)cc1 | 1070 | > 30000 | > 30000 | –
16 | CN(C)C(=O)c1ccc(OC/C(F)=C\CN)cc1 | 370 | 19000 | – | –
17 | NC/C=C(/F)COc1ccc(C(=O)N2CCCC2)cc1 | 140 | 11000 | – | –
18 | CN(Cc1ccccc1)C(=O)c1ccc(OC/C(F)=C\CN)cc1 | 260 | 2210 | – | –
19 | NC/C=C(/F)COc1ccc(C(=O)NC2CCCC2)cc1 | 20 | 1640 | > 30000 | IC50 [4]: 530 nM; IC50 [5]: > 30000 nM
20 | NC/C=C(/F)COc1ccc(C(=O)NC2CCCCC2)cc1 | 10 | 1120 | > 30000 | half-life [6]: 1.62 h; EC50 (Rattus norvegicus): 10 mg/kg; IC50 [4]: 150 nM; EC50 (Mus musculus): 10 mg/kg; inhibition (INH) [7]: Not Active; Ki [8]: 1640 nM; Activity (Salmonella typhimurium): Non-toxic; IC50 [5]: 26100 nM; bioavailability [9]: 62%; IC50 [10]: > 10000 nM
21 | NC/C=C(/F)COc1ccc(C(=O)NCc2ccccc2)cc1 | 80 | 620 | – | –
22 | C[C@@H](NC(=O)c1ccc(OC/C(F)=C\CN)cc1)c1ccccc1 | 30 | 1610 | > 30000 | IC50 [5]: 2460 nM
23 | C[C@H](NC(=O)c1ccc(OC/C(F)=C\CN)cc1)c1ccccc1 | 40 | 6430 | > 30000 | IC50 [4]: 130 nM; IC50 [5]: 74100 nM
24 | CC(NC(=O)c1ccc(OC/C(F)=C\CN)cc1)c1ccccc1 (racemic) | 40 | 2980 | – | –
25 | NC/C(=C/F)CCc1ccc(F)cc1 [MOFEGILINE] | 20 | 10 | 1780 | IC50 [4]: 10 nM; Ki [8]: 1610 nM; IC50 [5]: > 10000 nM
